The values that follow come from patent US20240409576A1, “-ent-19-norprogesterone, compositions and uses thereof to treat traumatic brain injury (TBI), including concussions-” (Oragenics, Inc., priority 2015, published 2024).

Values after ≈ are worked out from the molar mass of the structure shown. “Also recorded” adds a separate entry of the source. Like-named read-outs stand apart in the source and are kept apart here.

Data set [1] has as its system moderate-to-severe adult TBI. Particulars: progesterone IV for 3 days after injury, cited from earlier work.
The subject of data set [2] is rat model of traumatic brain injury (mid-line cortical impact). It counts as in vivo, Sprague-Dawley rats. The following applies: for Motor function (neuroscore) compared to vehicle-treated rats: 48 h post-injury, 6 h, 24 h.
For data set [3] the test system is unchanged. It is filed as in vivo, Sprague-Dawley rats. Particulars: 48 h post-injury.
The test system is the same in data set [4]. It counts as in vivo, Sprague-Dawley rats. Particulars: 48 h post-injury. This is another data set of the same source.
Data set [5] has the same test system. It counts as in vivo, Sprague-Dawley rats.
For data set [6] the test system is unchanged. It is filed as in vivo, Sprague-Dawley rats. This is another data set of the same source.
Data set [7] shares this test system. It is filed as in vivo, Sprague-Dawley rats. Particulars: 48 h post-injury; for Time spent in thigmotaxia compared to vehicle-treated rats: trial not stated.
Another data set deals with nasal mucosa of a rat. As to the kind of experiment: Intranasal penetration of Evans Blue labeled PRV002, atomizer vs pipette. It is filed as in vivo. The following applies: PRV002 labeled with Evans Blue dye, post-mortem evaluation. As to the method:
The goal of this study is to evaluate the motor and cognitive function of rats treated via intranasal administration with PRV-002, an analogue of the enantiomer of progesterone, following traumatic brain injury. Prior to the initiation of the treatment study, an anatomical evaluation is performed using PRV002 labeled with Evans Blue dye to determine the optimal intranasal/intracerebral penetration of compound using intranasal administration via a miniature atomizer vs. a manual pipette.

A short description of the next data set: physchem. Particulars: aqueous with cosolvent or surfactant or cyclodextrin, thermodynamic from solid.
For data set [8] the following is noted: under certain conditions; cited from earlier work.
Where [9] appears, read: trial 1, intraperitoneal 4 mg/kg.
Setting [10] is: trial 1, intraperitoneal 16 mg/kg.
[11] abbreviates: trial 2, intraperitoneal 4 mg/kg.
Setting [12] is: trial 2, intraperitoneal 16 mg/kg.
Where [13] appears, read: trial not given, intraperitoneal 4 mg/kg.
[14] abbreviates: trial not given, intraperitoneal 16 mg/kg.
[15] abbreviates: 48 h post-injury, intranasal 0.05 mg/kg.

With `CC(=O)[C@H]1CC[C@H]2[C@@H]3CCC4=CC(=O)CC[C@]4(C)[C@H]3CC[C@]12C` [progesterone], in [1] (control 30.4%), the Mortality rate is recorded as 13.6%. The Serious adverse events entry in data set [1] (data safety monitoring board) is “no serious adverse events attributable to progesterone treatment”.

The term solubility denotes how much of the substance goes into solution per volume. Consider `CC(=O)[C@@H]1CC[C@@H]2[C@H]3CCC4=CC(=O)CC[C@H]4[C@@H]3CC[C@]21C` (single isomer, unassigned; ent-19) [PRV-002, ent-19-norpregn-4-ene-3,20-dione], for which the “Group differences in neuroscore” value in [2] (24 h post-injury, intraperitoneal 4 mg/kg or 16 mg/kg, sham, vehicle and treated groups) is on record as “failed to reveal significant differences; also recorded: no significant group differences”. For the same compound, the “Motor function (neuroscore) compared to vehicle-treated rats” value in data set [2] (intraperitoneal 4 mg/kg at 15 min) is given as “significant improvement; also recorded: significantly better motor performance; also recorded: significant attenuation of TBI-induced motor function deficits; also recorded: significantly better motor function”; in [2] (intraperitoneal 16 mg/kg at 15 min), “significant improvement; also recorded: significantly better motor performance; also recorded: significant attenuation of TBI-induced motor function deficits; also recorded: significantly better motor function”; in [5] (24 h post-injury, intranasal 0.1 mg/kg), “significantly improved motor function”; in [5] (24 h post-injury, intranasal 0.1 mg/kg, listed as PRV002), “significantly improved”; in data set [5] (24 h post-injury, intranasal 4 mg/kg), “significantly improved motor function”; in [5] (24 h post-injury, intranasal 4 mg/kg, listed as PRV002), “significantly improved”. Also, the “Motor function (neuroscore) compared to vehicle-treated rats” value is recorded as “significantly better motor function” in data set [5] (setting [15]); “significantly improved motor function” in data set [5] (48 h post-injury, intranasal 0.05 mg/kg, listed as PRV002); “significantly better motor function” in [5] (48 h post-injury, intranasal 0.1 mg/kg); “significantly improved motor function” in [5] (48 h post-injury, intranasal 0.1 mg/kg, listed as PRV002); “significantly better motor function” in [5] (48 h post-injury, intranasal 4 mg/kg); “significantly better motor function” in data set [5] (48 h post-injury, intranasal 4 mg/kg, listed as PR V-002). Further, the “Motor function (neuroscore) compared to vehicle-treated rats” value in data set [5] (48 h post-injury, intranasal 4 mg/kg, listed as PRV002) is “significantly improved motor function”. Besides, the “Morris water maze memory score (cognitive deficits) vs vehicle-treated injured rats” value in data set [3] (setting [9]) is “significantly attenuated TBI-related cognitive deficits”; in data set [3] (setting [10]), “significantly attenuated TBI-related cognitive deficits”; in data set [3] (setting [11]), “significantly attenuated TBI-related cognitive deficits”; in data set [3] (setting [12]) it was “significantly attenuated TBI-related cognitive deficits”; in data set [3] (setting [13]), “ameliorated; also recorded: vehicle-treated injured rats have significantly worse cognitive function; also recorded: amelioration of TBI-induced cognitive deficits”; in [3] (setting [14]) it was “ameliorated; also recorded: vehicle-treated injured rats have significantly worse cognitive function; also recorded: amelioration of TBI-induced cognitive deficits”. The “Time spent in thigmotaxia vs vehicle-treated injured rats” value in [4] (setting [9]) is “vehicle-treated rats spend significantly more time in thigmotaxia”; in data set [4] (setting [10]), “vehicle-treated rats spend significantly more time in thigmotaxia”; in data set [4] (setting [11]), “vehicle-treated rats spend significantly more time in thigmotaxia”; in data set [4] (setting [12]) it was “vehicle-treated rats spend significantly more time in thigmotaxia”; in data set [4] (setting [13]), “ameliorated; also recorded: vehicle-treated injured rats spend significantly more time in thigmotaxia; also recorded: spend less time in the thigmotaxia area”; in data set [4] (setting [14]), “ameliorated; also recorded: vehicle-treated injured rats spend significantly more time in thigmotaxia; also recorded: spend less time in the thigmotaxia area”. In addition, the “Motor performance (neuroscore) compared to sham rats” value in data set [5] (setting [15]) is “significantly worse performance”; in data set [5] (48 h post-injury, intranasal 1 mg/kg), “significantly worse performance”. Also, the “Motor performance scores (neuroscore) compared to sham rats” value in data set [5] (rat, in vivo) is listed as “not significantly different from sham rats”. Further, the “Cognitive function (post-traumatic memory)” value in data set [6] (48 h post-injury/treatment, intranasal 4 mg/kg, trial not stated) is recorded as “significant improvement in cognitive function”. The “Morris water maze memory score (cognitive performance) compared to all other groups” value in data set [6] (rat, in vivo) was “all groups have significantly lower memory scores than PRV-002 4 mg/kg-treated rats”; in [6] (trial 1, 48 h post-injury, intranasal 4 mg/kg), “significantly better cognitive performance”. Also, the “Group differences in cognitive performance (Morris water maze memory score)” value in data set [6] (trial 2, 48 h post-injury, intranasal 0.05, 0.1, 1, 4 mg/kg groups) is reported as “significant group differences in cognitive performance are not observed”. The “Group differences in time spent in thigmotaxia” value in [7] (trial 1, intranasal 0.05, 0.1, 1, 4 mg/kg groups) is reported as “no significant group differences are observed in time spent in thigmotaxia”. The “Time spent in thigmotaxia compared to vehicle-treated injured rats” value in [7] (trial 2, intranasal 4 mg/kg) is given as “significantly less time in thigmotaxia”. Moreover, in [7] (trial 2, intranasal 005 mg/kg), the “Time spent in thigmotaxia compared to sham rats” value is “significantly more time in thigmotaxia”. Further, the “Time spent in thigmotaxia compared to vehicle-treated rats” value is reported as “spent significantly less time in thigmotaxia” in [7] (intranasal 4 mg/kg) and “significantly reduced” in data set [7] (intranasal 4 mg/kg, listed as PRV002). Moreover, the “Nasal mucosal penetration, miniature atomizer vs manual pipette” value in the data set with nasal mucosa of a rat is listed as “clear advantage of the miniature atomizer over the pipette technique”. The Resultant solution result (30 mg in 1 ml Solution 1, mix time 60 min) is on record as “Hazy”; the Resultant solution entry (+0.1 ml Solution 1, ~1.1 ml, mix time 120 min) is recorded as “Hazy”; the Resultant solution entry (+0.1 ml Solution 1, ~1.2 ml, mix O/N) is “Hazy to Clear”. Also, the solubility in “physchem” was around 23 mg/mL (≈ 76.6 mM).

As for `CC(=O)[C@@H]1CC[C@@H]2[C@H]3CCC4=CC(=O)CC[C@@]4(C)[C@@H]3CC[C@]21C` [ent-Progesterone, ent-progesterone], in data set [8], the “Antioxidant activity relative to racemate” value is recorded as “three times the antioxidant activity of racemate”.
